Measurements published in patent US8980901B2, “5-fluoro-3-phenyl-2[1-(9H-purin-6-ylamino)propyl]-3H-quinazolin-4-one and 6-fluoro-3-phenyl-2-[1-(9H-purin-6-ylamino)ethyl]-3H-quinazolin-4-one as inhibitors of human phosphatidylinositol 3-kinase delta” (Icos Corporation, priority 2004, dated 2015).

Key:
neutrophil = settings: cited from earlier work
osteoclasts = experiment: Osteoclast function (pit depth on dentine slices); format: cell-based, mouse; settings: PI3K inhibitors 100 nM, 72 hr
Description: To analyze the effect of the present PI3Kδ inhibitor compounds on osteoclasts, mouse bone marrow cells are isolated and differentiated to osteoclasts by treating the cells with Macrophage Colony Stimulating Factor^−1 (mCSF^−1) and Osteoprotegerin Ligand (OPGL) in serum-containing medium (αMEM with 10% heat-inactivated FBS; Sigma) for 3 days. On day four, when the osteoclasts had developed, the medium is removed and cells are harvested. The osteoclasts are plated on dentine slices at 10^5 cells/well in growth medium, i.e., αMEM containing 1% serum and 2% BSA with […] OPGL and 10 ng/mL mCSF^−1. After 3 hr, the medium is changed to 1% serum and 1% BSA, with or without osteopontin (25 μg/mL) and the PI3K inhibitors (100 nM). The medium is changed every 24 hours with fresh osteopontin and the inhibitors. At 72 hr, the medium is removed, and the dentine surfaces are washed with water to remove cell debris and stained with acid hematoxylin. Excess stain is washed and the pit depths are quantitated using confocal microscopy.

Class I PI 3-kinases = settings: read-out: IC50 values against each of these PI 3-kinases; cited from earlier work

**Q.** With O=c1cc(N2CCOCC2)oc2c(-c3ccccc3)cccc12 [LY294002] as the compound, how does the neutrophil migration (neutrophil) read?
**A.** Its neutrophil migration is “block”.

**Q.** And the superoxide release (neutrophil)?
**A.** Its superoxide release is “block”.

**Q.** What about the “inhibition of osteoclast activity” value (osteoclasts) of the same compound?
**A.** Its value is “inhibited osteoclast activity”.

**Q.** What about the IC50 (Class I PI 3-kinases) of the same compound?
**A.** Its IC50 is roughly 1 µM.

**Q.** Which results are given for COC[C@H]1OC(=O)c2coc3c2[C@@]1(C)C1=C(C3=O)[C@@H]2CCC(=O)[C@@]2(C)C[C@H]1OC(C)=O [wortmannin]?
**A.** neutrophil migration (neutrophil): block; superoxide release (neutrophil): block; inhibition of osteoclast activity (osteoclasts): inhibited osteoclast activity
